Among the data in patent US9365562B2, “1,3 substituted azetidine PDE10 inhibitors” (Merck Sharp & Dohme Corp., priority 2011, dated 2016) are Ki values, retold here.

This assay deals with human PDE10A2 (Homo sapiens (Human), UniProt Q9Y233). Briefly: PDE10 fluorescence polarization (IMAP FP) inhibition assay. The settings on record: apparent inhibition constant, FAM-labeled cAMP substrate 50 nM, room temperature. Format: biochemical. In outline: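 Cytoplasmic lysate of AD293 cells transiently expressing human PDE10A2, enzyme preincubated 60 min at room temperature with compounds (1% DMSO), then 50 nM FAM-cAMP added for 60 min. Buffer 10 mM Tris HCl pH 7.2, 10 mM MgCl2, 1 mM DTT; IMAP binding reagent stop, FP read after ≥1 h.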
Sequence of human PDE10A2 (Q9Y233 267-1055): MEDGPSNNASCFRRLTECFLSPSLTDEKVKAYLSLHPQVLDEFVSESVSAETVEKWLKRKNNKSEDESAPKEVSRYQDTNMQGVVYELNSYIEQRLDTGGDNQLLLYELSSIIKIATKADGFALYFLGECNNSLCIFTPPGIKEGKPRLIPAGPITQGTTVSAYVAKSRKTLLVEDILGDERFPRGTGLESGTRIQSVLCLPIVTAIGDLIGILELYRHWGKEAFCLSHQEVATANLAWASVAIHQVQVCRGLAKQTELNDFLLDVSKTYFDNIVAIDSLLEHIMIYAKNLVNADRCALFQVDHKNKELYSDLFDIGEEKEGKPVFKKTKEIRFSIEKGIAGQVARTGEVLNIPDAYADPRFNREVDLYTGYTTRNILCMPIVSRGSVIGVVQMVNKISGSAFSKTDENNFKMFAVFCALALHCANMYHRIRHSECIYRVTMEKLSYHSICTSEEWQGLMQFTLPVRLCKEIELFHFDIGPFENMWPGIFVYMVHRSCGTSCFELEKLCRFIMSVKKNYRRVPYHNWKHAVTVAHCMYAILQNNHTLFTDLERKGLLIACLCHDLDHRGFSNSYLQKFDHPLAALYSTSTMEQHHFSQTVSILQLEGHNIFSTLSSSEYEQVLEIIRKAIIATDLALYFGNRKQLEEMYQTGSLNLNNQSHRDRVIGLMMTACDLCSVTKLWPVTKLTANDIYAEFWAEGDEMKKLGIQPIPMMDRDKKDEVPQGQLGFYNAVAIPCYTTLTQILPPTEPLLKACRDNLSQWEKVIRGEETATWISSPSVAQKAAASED

`CC(=O)c1ccnc(-c2cc(N3CC(c4nc5ccccc5n4C)C3)nc(C)n2)c1` [Example 101, 1-(2-(2-methyl-6-(3-(1-methyl-1H-benzo[d]imidazol-2-yl)azetidin-1-yl)pyrimidin-4-yl)pyridin-4-yl)ethanone]: the Ki stood at 31 nM.
